# Laboratory results as given in paper PMC4859410 (Pharmacogenetics and genomics, 2010).
# Like-named read-outs stand apart in the source and are kept apart here.
# Legend:
# OATP1B3 = biological target: T1, OATP1B3 (Homo sapiens, UniProt Q9NPD5); assay: Drug uptake in X. laevis oocytes injected with SLCO1B3; assay type: in vitro ADME; conditions: without human serum albumin, 1 µM (darunavir 3 µM, performed once), 18°C, 1hr, mean ± SD; for Drug uptake, OATP1B3: OATP1B3 cRNA injected oocytes; for Drug uptake, Water: water injected control oocytes (Table 3)
# T1 sequence (Q9NPD5 1-702): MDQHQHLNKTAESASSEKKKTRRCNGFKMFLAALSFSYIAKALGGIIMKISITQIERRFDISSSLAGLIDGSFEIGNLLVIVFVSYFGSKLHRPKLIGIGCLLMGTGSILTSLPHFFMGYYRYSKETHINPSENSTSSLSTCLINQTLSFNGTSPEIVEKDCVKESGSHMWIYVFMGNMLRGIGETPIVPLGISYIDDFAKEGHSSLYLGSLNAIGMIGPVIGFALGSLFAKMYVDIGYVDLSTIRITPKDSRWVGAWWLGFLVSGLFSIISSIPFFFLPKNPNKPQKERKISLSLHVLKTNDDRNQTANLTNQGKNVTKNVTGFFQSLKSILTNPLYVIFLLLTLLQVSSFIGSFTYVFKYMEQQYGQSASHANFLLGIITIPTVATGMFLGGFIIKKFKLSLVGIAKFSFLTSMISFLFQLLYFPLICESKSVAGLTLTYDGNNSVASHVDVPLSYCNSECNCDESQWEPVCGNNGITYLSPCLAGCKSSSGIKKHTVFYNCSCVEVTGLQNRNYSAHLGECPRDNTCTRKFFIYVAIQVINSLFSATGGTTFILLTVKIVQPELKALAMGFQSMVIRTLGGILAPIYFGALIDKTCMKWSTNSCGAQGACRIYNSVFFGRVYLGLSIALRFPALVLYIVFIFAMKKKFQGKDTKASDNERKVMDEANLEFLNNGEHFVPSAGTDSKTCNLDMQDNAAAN
# OATP1B1 [1] = biological target: T2, OATP1B1 (Homo sapiens, UniProt Q9Y6L6); assay: Drug uptake in X. laevis oocytes injected with SLCO1B1; assay type: in vitro ADME; conditions: 1 µM (darunavir 3 µM), 18°C, 1hr, mean ± SD; for Drug uptake, OATP1B1: OATP1B1 cRNA injected oocytes; for Drug uptake, Water: water injected control oocytes (Table 2)
# T2 sequence (Q9Y6L6 1-691): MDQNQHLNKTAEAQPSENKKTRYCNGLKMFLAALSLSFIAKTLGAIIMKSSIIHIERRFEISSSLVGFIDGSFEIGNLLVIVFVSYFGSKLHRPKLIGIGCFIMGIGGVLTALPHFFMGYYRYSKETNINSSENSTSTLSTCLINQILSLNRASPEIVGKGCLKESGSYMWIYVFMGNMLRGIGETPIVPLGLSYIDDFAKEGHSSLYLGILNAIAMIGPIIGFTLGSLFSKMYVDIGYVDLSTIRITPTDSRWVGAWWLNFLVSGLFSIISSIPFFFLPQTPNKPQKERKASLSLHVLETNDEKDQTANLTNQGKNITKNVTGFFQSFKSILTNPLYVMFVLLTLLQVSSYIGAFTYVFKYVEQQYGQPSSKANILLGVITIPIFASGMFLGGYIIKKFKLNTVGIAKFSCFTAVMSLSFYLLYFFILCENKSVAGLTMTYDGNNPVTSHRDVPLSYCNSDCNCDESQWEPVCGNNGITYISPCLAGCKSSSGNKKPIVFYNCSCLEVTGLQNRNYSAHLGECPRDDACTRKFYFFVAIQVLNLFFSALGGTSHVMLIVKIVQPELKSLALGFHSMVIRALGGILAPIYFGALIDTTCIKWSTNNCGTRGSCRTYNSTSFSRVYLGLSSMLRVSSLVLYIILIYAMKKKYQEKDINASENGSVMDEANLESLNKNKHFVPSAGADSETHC
# [2] = assay type: in vivo, human
# OATP1A2 = biological target: T3, OATP1A2 (Homo sapiens, UniProt P46721); assay: Drug uptake in X. laevis oocytes injected with SLCO1A2; assay type: in vitro ADME; conditions: 1 µM (darunavir 3 µM), 18°C, 1hr, mean ± SD; for Drug uptake, OATP1A2: OATP1A2 cRNA injected oocytes; for Drug uptake, Water: water injected control oocytes (Table 1)
# T3 sequence (P46721 1-670): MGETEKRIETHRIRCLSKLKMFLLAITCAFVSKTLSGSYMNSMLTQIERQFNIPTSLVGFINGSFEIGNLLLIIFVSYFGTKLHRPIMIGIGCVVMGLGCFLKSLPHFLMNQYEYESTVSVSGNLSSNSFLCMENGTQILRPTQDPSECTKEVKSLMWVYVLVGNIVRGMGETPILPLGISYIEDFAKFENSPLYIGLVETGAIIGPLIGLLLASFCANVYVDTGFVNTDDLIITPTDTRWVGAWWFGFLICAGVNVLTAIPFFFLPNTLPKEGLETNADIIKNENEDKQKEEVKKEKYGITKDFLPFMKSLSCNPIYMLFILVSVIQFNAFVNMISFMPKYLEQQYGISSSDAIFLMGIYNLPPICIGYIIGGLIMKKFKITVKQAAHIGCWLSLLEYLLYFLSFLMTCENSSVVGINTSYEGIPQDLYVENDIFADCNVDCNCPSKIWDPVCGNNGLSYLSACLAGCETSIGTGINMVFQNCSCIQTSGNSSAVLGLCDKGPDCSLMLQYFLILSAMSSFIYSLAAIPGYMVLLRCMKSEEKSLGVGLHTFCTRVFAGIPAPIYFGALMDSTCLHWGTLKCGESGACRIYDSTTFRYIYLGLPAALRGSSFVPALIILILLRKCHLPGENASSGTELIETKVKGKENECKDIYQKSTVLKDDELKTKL
# OATP1B1 [3] = biological target: T2, OATP1B1; conditions: HEK 293 cells stably transfected with SLCO1B1; cited from earlier work
# [4] = independent variable Age (Years)
# [5] = independent variable Coadministered protease inhibitor
# [6] = independent variable Male Gender
# [7] = independent variable SLCO1A2 38T>C
# [8] = independent variable SLCO1A2 516A>C
# [9] = independent variable SLCO1B1 388A>G
# [10] = independent variable SLCO1B1 521T>C
# [11] = independent variable SLCO1B3 334T>G
# [12] = independent variable Weight (per 10kg)
# [13] = patients on lopinavir/ritonavir 400mg/100mg b.d., samples included in the analysis
structure (smiles),measurement,setting,value
"Cc1cccc(C)c1OCC(=O)N[C@@H](Cc1ccccc1)[C@@H](O)C[C@H](Cc1ccccc1)NC(=O)[C@H](C(C)C)N1CCCNC1=O [Lopinavir, lopinavir]","Drug uptake, OATP1B3",OATP1B3,2.30 ± 0.66 pmol/oocyte
same,"Drug uptake, Water",OATP1B3,1.69 ± 0.78 pmol/oocyte
same,"Drug uptake, OATP1B1",OATP1B1 [1]; with 2% human serum albumin,1.14 ± 0.41 pmol/oocyte
same,"Drug uptake, OATP1B1",OATP1B1 [1]; without human serum albumin,4.31 ± 0.72 pmol/oocyte
same,"Drug uptake, Water",OATP1B1 [1]; with 2% human serum albumin,0.66 ± 0.22 pmol/oocyte
same,"Drug uptake, Water",OATP1B1 [1]; without human serum albumin,2.14 ± 0.43 pmol/oocyte
same,lopinavir Cmin with a SNP located in intron 2 of the SLCO1B1 gene,[2]; in words,significantly lower
same,"median plasma lopinavir Cmin, patients homozygous for the C allele at position 521 of SLCO1B1 compared to T homozygotes or heterozygotes",[2]; in words,significantly higher
same,Univariate effect size on lopinavir C2-6,[2]; [4],6.8%
same,Univariate effect size on lopinavir Cmin,[2]; [4],1.1%
same,Univariate effect size on lopinavir C2-6,[2]; [5],−14.9%
same,Univariate effect size on lopinavir Cmin,[2]; [5],−15.5%
same,Univariate effect size on lopinavir C2-6,[2]; [6],4.2%
same,Univariate effect size on lopinavir Cmin,[2]; [6],−5.5%
same,Univariate effect size on lopinavir C2-6,[2]; [7],5.8%
same,Univariate effect size on lopinavir Cmin,[2]; [7],4.7%
same,Univariate effect size on lopinavir C2-6,[2]; [8],5.4%
same,Univariate effect size on lopinavir Cmin,[2]; [8],−1.0%
same,Univariate effect size on lopinavir C2-6,[2]; [9],−7.1%
same,Univariate effect size on lopinavir Cmin,[2]; [9],−7.3%
same,Univariate effect size on lopinavir C2-6,[2]; [10],12.8%
same,Univariate effect size on lopinavir Cmin,[2]; [10],12.2%
same,Multivariate effect size on lopinavir Cmin,[2]; independent variable SLCO1B1 Intron 2 (rs4149032),0.016 (−11) - %
same,Univariate effect size on lopinavir C2-6,"[2]; independent variable SLCO1B1 Intron 2 (rs4149032), C2-6 = 2-6h post dose",−4.6%
same,Univariate effect size on lopinavir Cmin,"[2]; independent variable SLCO1B1 Intron 2 (rs4149032), Cmin = 10-14h post dose",−11.9%
same,Univariate effect size on lopinavir C2-6,[2]; [11],−0.2%
same,Univariate effect size on lopinavir Cmin,[2]; [11],−1.8%
same,Multivariate effect size on lopinavir Cmin,[2]; [12],−17.2%
same,Univariate effect size on lopinavir C2-6,[2]; [12],−13.7%
same,Univariate effect size on lopinavir Cmin,[2]; [12],−17.4%
same,C2-6 higher for each variant allele of SLCO1B1 521T>C,[2]; multivariate model,11.1%
same,C2-6 higher in patients receiving an additional protease inhibitor,[2]; multivariate model,14.4%
same,Cmin higher in patients receiving an additional protease inhibitor,[2]; multivariate model,15.4%
same,Cmin lower for each variant allele of SLCO1B1 rs4149032,[2]; multivariate model,11%
same,Cmin lower for every 10 Kg increase in body weight,[2]; multivariate model,17.2%
same,median lopinavir concentration (plasma),[2]; [13],5072 ng/mL
same,range of lopinavir concentration (plasma),[2]; [13],114 to 24432 ng/mL
same,"Drug uptake, OATP1A2",OATP1A2; with 2% human serum albumin,1.65 ± 0.59 pmol/oocyte
same,"Drug uptake, OATP1A2",OATP1A2; without human serum albumin,4.07 ± 0.67 pmol/oocyte
same,"Drug uptake, Water",OATP1A2; with 2% human serum albumin,0.82 ± 0.24 pmol/oocyte
same,"Drug uptake, Water",OATP1A2; without human serum albumin,2.53 ± 0.36 pmol/oocyte
"CC(C)(C)NC(=O)[C@@H]1C[C@@H]2CCCC[C@@H]2CN1C[C@@H](O)[C@H](Cc1ccccc1)NC(=O)[C@H](CC(N)=O)NC(=O)c1ccc2ccccc2n1 [Saquinavir, saquinavir]","Drug uptake, OATP1B3",OATP1B3,2.17 ± 0.61 pmol/oocyte
same,"Drug uptake, Water",OATP1B3,1.62 ± 0.45 pmol/oocyte
same,"Drug uptake, OATP1B1",OATP1B1 [1]; with 2% human serum albumin,0.64 ± 0.23 pmol/oocyte
same,"Drug uptake, OATP1B1",OATP1B1 [1]; without human serum albumin,1.78 ± 0.44 pmol/oocyte
same,"Drug uptake, Water",OATP1B1 [1]; with 2% human serum albumin,0.21 ± 0.06 pmol/oocyte
same,"Drug uptake, Water",OATP1B1 [1]; without human serum albumin,0.94 ± 0.26 pmol/oocyte
same,"Drug uptake, OATP1A2",OATP1A2; with 2% human serum albumin,0.45 ± 0.05 pmol/oocyte
same,"Drug uptake, OATP1A2",OATP1A2; without human serum albumin,2.16 ± 0.71 pmol/oocyte
same,"Drug uptake, Water",OATP1A2; with 2% human serum albumin,0.27 ± 0.03 pmol/oocyte
same,"Drug uptake, Water",OATP1A2; without human serum albumin,1.01 ± 0.21 pmol/oocyte
same,Inhibition of bilirubin uptake through OATP1B1,OATP1B1 [3],inhibit bilirubin uptake
